According to patent publication US5672715A, “Herbicidal substituted 3-aryl-pyrazoles” (Monsanto Company, priority 1995, dated 1997):
“And” between values parts separate entries of the source, which are not always exact repeats. Equal values may be shown once.

Legend:
Type in all cases: in vivo
Bedstraw Catchweed [1] = test: pre-emergence herbicide test; settings: Galium aparine, pre-emergence, 0.25 lb/A; read-out: % plant inhibition
Experimental: (§1) Topsoil was placed in an aluminum pan and compacted to a depth of 1.3 to 1.6 cm from the top of the pan. On the top of the soil was placed a predetermined number of seeds of each of several monocotyledonous and dicotyledonous annual plant species and/or vegetative propagules of various perennial plant species. The pan was then level filled with a cover layer of topsoil to which was added a known amount of active ingredient either prior to or after application of the cover layer. The active ingredient was dissolved or suspended in an organic solvent, e.g., acetone, or water as carrier for application to the cover layer. The pans were moved to a greenhouse bench where they were thereafter watered from below as needed to give adequate moisture for germination and growth. In some cases, an initial overhead irrigation of 1/4 inch of water was applied immediately after treatment.
(§2) Approximately 14 days after seeding and treating, the pans were observed and the results (% inhibition) were recorded.
(§3) The tables below summarize the results of the pre-emergence herbicidal activity tests of compounds of this invention tested with warm season plants (Tables 2a-2d) and cool season plants (Tables 3a and 3b). The herbicidal rating shown in these tables is the percent inhibition of each plant species. The plant species usually regarded as weeds are identified in the tables by single letter headings and crop species identified by two letter headings both headings being above the columns in accordance with the following legend: […]

Birdseye Speedwell [2] = test: pre-emergence herbicide test; settings: pre-emergence, 0.25 lb/A; read-out: % plant inhibition
Experimental: as §1, §2, §3

Blackgrass [3] = test: pre-emergence herbicide test; settings: Alopecurus myosuroides, pre-emergence, 0.25 lb/A; read-out: % plant inhibition
Experimental: as §1, §2, §3

Common Chickweed [4] = test: pre-emergence herbicide test; settings: pre-emergence, 0.25 lb/A; read-out: % plant inhibition
Experimental: as §1, §2, §3

Downy Brome [5] = test: pre-emergence herbicide test; settings: Bromus tectorum, pre-emergence, 0.25 lb/A; read-out: % plant inhibition
Experimental: as §1, §2, §3

Green Foxtail [6] = test: pre-emergence herbicide test; settings: Setaria viridis, pre-emergence; 0.25 lb/A; read-out: % plant inhibition
Experimental: as §1, §2, §3

Rape [7] = test: pre-emergence herbicide test; settings: pre-emergence, 0.25 lb/A; read-out: % plant inhibition
Experimental: as §1, §2, §3

Soybean [8] = test: pre-emergence herbicide test; settings: 0.25 lb/A
Experimental: as §1, §2, §3

Velvetleaf [9] = test: pre-emergence herbicide test; settings: Abutilon theophrasti, pre-emergence, 0.25 lb/A; read-out: % plant inhibition
Experimental: as §1, §2, §3

Wheat [10] = test: pre-emergence herbicide test; settings: Triticum aestivum, pre-emergence, 0.25 lb/A; read-out: % plant inhibition
Experimental: as §1, §2, §3

Wild Oats [11] = test: pre-emergence herbicide test; settings: Avena fatua, pre-emergence, 0.25 lb/A; read-out: % plant inhibition
Experimental: as §1, §2, §3

Barnyardgrass = test: post-emergence herbicide test; settings: Echinochloa crus-galli, post-emergence, 0.25 lb/A; read-out: % plant inhibition
Source text: (§4) Topsoil was placed in aluminum pans having holes in the bottom and compacted to a depth of 1.3 to 1.6 cm from the top of the pan. A predetermined number of seeds of each of several dicotyledonous and monocotyledonous annual plant species and/or vegetative propagules for the perennial plant species were placed on the soil and pressed into the soil surface. The seeds and/or vegetative propagules were covered with soil and leveled. The pans were then placed on a bench in the greenhouse and watered either from overheard irrigation or by subirrigation as needed. After the plants reach the desired age (two to three weeks), each pan, is removed individually to a spraying chamber and sprayed by means of an atomizer, operating at a spray pressure of 170.3 kPa […] at the application rates noted. In the spray solution was an amount of an emulsifying agent mixture to give a spray solution or suspension which contains about 0.4% by volume of the emulsifier. The spray solution or suspension contained a sufficient amount of the candidate chemical in order to give application rates of the active ingredient corresponding to those shown in Tables 4 and 5, while applying a total amount of solution or suspension equivalent to 1870 L/Ha (200 gallons/acre). […] The post-emergent herbicidal activity shown in these tables is the percent inhibition of each plant species. Testing with warm season and cool season plants is shown in tables 4a-4d and […], respectively.

Bedstraw Catchweed [12] = test: post-emergence herbicide test; settings: Galium aparine, post-emergence, 0.25 lb/A; read-out: % plant inhibition
Source text: as §4

Birdseye Speedwell [13] = test: post-emergence herbicide test; settings: post-emergence, 0.25 lb/A; read-out: % plant inhibition
Source text: as §4

Blackgrass [14] = test: post-emergence herbicide test; settings: Alopecurus myosuroides, post-emergence, 0.25 lb/A; read-out: % plant inhibition
Source text: as §4

Cocklebur = test: post-emergence herbicide test; settings: Xanthium strumarium, post-emergence, 0.25 lb/A; read-out: % plant inhibition
Source text: as §4

Common Chickweed [15] = test: post-emergence herbicide test; settings: post-emergence, 0.25 lb/A; read-out: % plant inhibition
Source text: as §4

Corn [16] = test: post-emergence herbicide test; settings: Zea mays, post-emergence, 0.25 lb/A; read-out: % plant inhibition
Source text: as §4

Downy Brome [17] = test: post-emergence herbicide test; settings: Bromus tectorum, post-emergence, 0.25 lb/A; read-out: % plant inhibition
Source text: as §4

Giant Foxtail = test: post-emergence herbicide test; settings: Setaria faberi, post-emergence, 0.25 lb/A; read-out: % plant inhibition
Source text: as §4

Green Foxtail [18] = test: post-emergence herbicide test; settings: Setaria viridis, post-emergence, 0.25 lb/A; read-out: % plant inhibition
Source text: as §4

Morning Glory = test: post-emergence herbicide test; settings: Ipomoea, post-emergence, 0.25 lb/A; read-out: % plant inhibition
Source text: as §4

Rape [19] = test: post-emergence herbicide test; settings: post-emergence, 0.25 lb/A; read-out: % plant inhibition
Source text: as §4

Seedling Johnsongrass = test: post-emergence herbicide test; settings: Sorghum halepense, post-emergence, 0.25 lb/A; read-out: % plant inhibition
Source text: as §4

Soybean [20] = test: post-emergence herbicide test; settings: Glycine max, post-emergence, 0.25 lb/A; read-out: % plant inhibition
Source text: as §4

Velvetleaf [21] = test: post-emergence herbicide test; settings: Abutilon theophrasti, post-emergence, 0.25 lb/A; read-out: % plant inhibition
Source text: as §4

Wheat [22] = test: post-emergence herbicide test; settings: Triticum aestivum, post-emergence, 0.25 lb/A; read-out: % plant inhibition
Source text: as §4

Wild Oats [23] = test: post-emergence herbicide test; settings: Avena fatua, post-emergence, 0.25 lb/A; read-out: % plant inhibition
Source text: as §4

Corn [24] = test: pre-emergence herbicide test; settings: 0.25 lb/A
Experimental: as §1, §2, §3

SMILES | inhibition at 280.212 g/ha (Bedstraw Catchweed [1]) [%] | inhibition at 280.212 g/ha (Birdseye Speedwell [2]) [%] | inhibition at 280.212 g/ha (Blackgrass [3]) [%] | inhibition at 280.212 g/ha (Common Chickweed [4]) [%] | inhibition at 280.212 g/ha (Downy Brome [5]) [%] | inhibition at 280.212 g/ha (Green Foxtail [6]) [%] | inhibition at 280.212 g/ha (Rape [7]) [%] | inhibition at 280.212 g/ha (Wheat [10]) [%] | inhibition at 280.212 g/ha (Wild Oats [11]) [%] | inhibition at 280.212 g/ha (Barnyardgrass) [%] | inhibition at 280.212 g/ha (Bedstraw Catchweed [12]) [%] | inhibition at 280.212 g/ha (Birdseye Speedwell [13]) [%] | inhibition at 280.212 g/ha (Blackgrass [14]) [%] | inhibition at 280.212 g/ha (Cocklebur) [%] | inhibition at 280.212 g/ha (Common Chickweed [15]) [%] | inhibition at 280.212 g/ha (Corn [16]) [%] | inhibition at 280.212 g/ha (Downy Brome [17]) [%] | inhibition at 280.212 g/ha (Giant Foxtail) [%] | inhibition at 280.212 g/ha (Green Foxtail [18]) [%] | inhibition at 280.212 g/ha (Morning Glory) [%] | further results
Cc1c(-c2cc(CO)c(Cl)cc2F)nn(C)c1C(F)(F)F [Compound 9, 2-Chloro-5-[1,4-dimethyl-5-(trifluoromethyl)-1H-pyrazol-3-yl]-4-fluorobenzenemethanol] | 20 | 90 | 50 | 90 | 5 | 100 | 30 | 0 | 5 | 25 | 50 | 35 | 20 | 35 | 15 | 10 | 25 | 10 | 20 | 45 | % plant inhibition (Soybean [8]): 0%; inhibition at 280.212 g/ha (Velvetleaf [9]): 98%; inhibition at 280.212 g/ha (Rape [19]): 20%; inhibition at 280.212 g/ha (Seedling Johnsongrass): 20%; inhibition at 280.212 g/ha (Soybean [20]): 60%; inhibition at 280.212 g/ha (Velvetleaf [21]): 95%; inhibition at 280.212 g/ha (Wheat [22]): 13%; inhibition at 280.212 g/ha (Wild Oats [23]): 25%
CC(C)OC(=O)c1cc(-c2nn(C)c(C(F)(F)F)c2C=O)c(F)cc1Cl [Compound 12, 2-Chloro-4-fluoro-5-[4-formyl-1-methyl-5-(trifluoromethyl)-1H-pyrazol-3-yl]benzoic acid, 1-methylethyl ester] | 65 | 80 | 60 | 85 | 60 | 98 | 15 | 5 | 60 | 80 | 95 | 100 | 50 | 98 | 100 | 15 | 90 | 35 | 90 | 99 | inhibition at 280.212 g/ha (Rape [19]): 100%; inhibition at 280.212 g/ha (Seedling Johnsongrass): 65%; inhibition at 280.212 g/ha (Soybean [20]): 85%; inhibition at 280.212 g/ha (Velvetleaf [21]): 99%; inhibition at 280.212 g/ha (Wheat [22]): 30%; inhibition at 280.212 g/ha (Wild Oats [23]): 85%
COCc1cc(-c2nn(C)c(C(F)(F)F)c2C)c(F)cc1Cl [Compound 11] | 75 | 95 | 60 | 25 | 10 | 100 | 15 | 0 | 20 | 0 | 50 | 60 | 15 | 15 | 10 | 15 | 10 | 0 | 25 | 25 | inhibition at 280.212 g/ha (Rape [19]): 5%; inhibition at 280.212 g/ha (Seedling Johnsongrass): 5%; inhibition at 280.212 g/ha (Soybean [20]): 20%; inhibition at 280.212 g/ha (Velvetleaf [21]): 50%; inhibition at 280.212 g/ha (Wheat [22]): 6%; inhibition at 280.212 g/ha (Wild Oats [23]): 5%
Cc1c(-c2cc(CBr)c(Cl)cc2F)nn(C)c1C(F)(F)F [Compound 10, 3-[5-(Bromomethyl)-4-chloro-2-fluorophenyl]-1,4-dimethyl-5-(trifluoromethyl)-1H-pyrazole] | 30 | 50 | 20 | 5 | 25 | 98 | 50 | 0 | 5 | 5 | 25 | 90 | 20 | 55 | 15 | 3 | 25 | 15 | 50 | 35 | inhibition at 280.212 g/ha (Rape [19]): 35%; inhibition at 280.212 g/ha (Seedling Johnsongrass): 15%; inhibition at 280.212 g/ha (Soybean [20]): 8%; inhibition at 280.212 g/ha (Velvetleaf [21]): 90%; inhibition at 280.212 g/ha (Wheat [22]): 10%; inhibition at 280.212 g/ha (Wild Oats [23]): 10%
Cc1cc(-c2nn(C)c(C(F)(F)F)c2C)c(F)cc1Cl [Compound 33] | 45 | 55 | 40 | 30 | 10 | 50 | 10 | 0 | 5 | 0 | 10 | 15 | 5 | 0 | 10 | 0 | 5 | 0 | 15 | 10 | % plant inhibition (Corn [24]): 10%; % plant inhibition (Soybean [8]): 5% and 0%; inhibition at 280.212 g/ha (Rape [19]): 5%; inhibition at 280.212 g/ha (Seedling Johnsongrass): 0%; inhibition at 280.212 g/ha (Soybean [20]): 15%; inhibition at 280.212 g/ha (Velvetleaf [21]): 10%; inhibition at 280.212 g/ha (Wheat [22]): 5%; inhibition at 280.212 g/ha (Wild Oats [23]): 5%
